Measured values from US20230085307A1, “PYRIDAZINONE COMPOUND AND HERBICIDE” (NISSAN CHEMICAL CORPORATION, priority 2019, published 2023).

Key:
[1] = tested on: barnyard grass; test: Test Example 3: herbicidal effect by foliage application, Wagner pot (Table 18, symbol H); type: in vivo, barnyard grass (Echinochloa crus-galli)
Method in brief: (§1)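 Plants were sown in alluvial soil held under 0.1–0.5 cm standing water and grown 14 days in a greenhouse at 25–30 °C. An emulsifiable formulation, water-diluted to the set dose, was then sprayed onto the foliage, and effects were scored three weeks later using previously defined criteria.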

[2] = tested on: Chinese sprangletop; test: Test Example 3: herbicidal effect by foliage application, Wagner pot (Table 18, symbol D); type: in vivo, chinese sprangletop (Leptochloa chinensis)
Method in brief: as §1

[3] = tested on: rice flat sedge; test: Test Example 3: herbicidal effect by foliage application, Wagner pot (Table 18, symbol E); type: in vivo, rice flat sedge (Cyperus iria); conditions: 320 g/ha
Method in brief: as §1

[4] = tested on: southern crabgrass; test: Test Example 4: herbicidal effect by soil treatment (Table 19, symbol F); type: in vivo, southern crabgrass (Digitaria ciliaris)
Method in brief: (§2)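 Herbicidal effect was rated 3 weeks after treatment, using the scoring criteria of an earlier test. The compound, formulated as an emulsion and diluted in water to a set herbicide amount, had been sprayed uniformly on soil over freshly sown seeds. Growth took place in a greenhouse at 25° C. to 30° C.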

[5] = tested on: green foxtail; test: Test Example 4: herbicidal effect by soil treatment (Table 19, symbol G); type: in vivo, green foxtail (Setaria viridis)
Method in brief: as §2

[6] = tested on: barnyard grass; test: Test Example 4: herbicidal effect by soil treatment (Table 19, symbol H); type: in vivo, barnyard grass (Echinochloa crus-galli)
Method in brief: as §2

[7] = tested on: wild oat; test: Test Example 4: herbicidal effect by soil treatment (Table 19, symbol I); type: in vivo, wild oat (Avena fatua)
Method in brief: as §2

[8] = tested on: blackgrass; test: Test Example 4: herbicidal effect by soil treatment (Table 19, symbol J); type: in vivo, blackgrass (Alopecurus myosuroides)
Method in brief: as §2

[9] = tested on: Italian ryegrass; test: Test Example 4: herbicidal effect by soil treatment (Table 19, symbol K); type: in vivo, Italian ryegrass (Lolium multiflorum)
Method in brief: as §2

[10] = tested on: windgrass; test: Test Example 4: herbicidal effect by soil treatment (Table 19, symbol L); type: in vivo, windgrass (Apera spica-venti)
Method in brief: as §2

[11] = tested on: velvetleaf; test: Test Example 4: herbicidal effect by soil treatment (Table 19, symbol M); type: in vivo, velvetleaf (Abutilon theophrasti)
Method in brief: as §2

[12] = tested on: redroot pigweed; test: Test Example 4: herbicidal effect by soil treatment (Table 19, symbol N); type: in vivo, redroot pigweed (Amaranthus retroflexus)
Method in brief: as §2

[13] = tested on: lambsquarters; test: Test Example 4: herbicidal effect by soil treatment (Table 19, symbol O); type: in vivo, lambsquarters (Chenopodium album)
Method in brief: as §2

[14] = tested on: chickweed; test: Test Example 4: herbicidal effect by soil treatment (Table 19, symbol P); type: in vivo, common chickweed (Stellaria media)
Method in brief: as §2

[15] = tested on: persian speedwell; test: Test Example 4: herbicidal effect by soil treatment (Table 19, symbol R); type: in vivo, Persian speedwell (Veronica persica)
Method in brief: as §2

[16] = tested on: southern crabgrass; test: Test Example 5: herbicidal effect by foliage application, plastic box (Table 20, symbol F); type: in vivo, southern crabgrass (Digitaria ciliaris); conditions: foliage application, AAH 320 g/ha
Method in brief: (§3)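 Foliar spray test: emulsion formulation diluted in water to a set application rate, sprayed onto 14-day-old plants raised in diluvial soil at 25° C to 30° C under glass. Both herbicidal effect and crop effect rated visually three weeks later.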

[17] = tested on: green foxtail; test: Test Example 5: herbicidal effect by foliage application, plastic box (Table 20, symbol G); type: in vivo, green foxtail (Setaria viridis); conditions: foliage application, AAH 320 g/ha
Method in brief: as §3

[18] = tested on: barnyard grass; test: Test Example 5: herbicidal effect by foliage application, plastic box (Table 20, symbol H); type: in vivo, barnyard grass (Echinochloa crus-galli); conditions: foliage application, AAH 320 g/ha
Method in brief: as §3

[19] = tested on: wild oat; test: Test Example 5: herbicidal effect by foliage application, plastic box (Table 20, symbol I); type: in vivo, wild oat (Avena fatua); conditions: foliage application, AAH 320 g/ha
Method in brief: as §3

[20] = tested on: blackgrass; test: Test Example 5: herbicidal effect by foliage application, plastic box (Table 20, symbol J); type: in vivo, blackgrass (Alopecurus myosuroides); conditions: foliage application, AAH 320 g/ha
Method in brief: as §3

[21] = tested on: Italian ryegrass; test: Test Example 5: herbicidal effect by foliage application, plastic box (Table 20, symbol K); type: in vivo, Italian ryegrass (Lolium multiflorum); conditions: foliage application, AAH 320 g/ha
Method in brief: as §3

[22] = tested on: windgrass; test: Test Example 5: herbicidal effect by foliage application, plastic box (Table 20, symbol L); type: in vivo, windgrass (Apera spica-venti); conditions: foliage application, AAH 320 g/ha
Method in brief: as §3

[23] = tested on: velvetleaf; test: Test Example 5: herbicidal effect by foliage application, plastic box (Table 20, symbol M); type: in vivo, velvetleaf (Abutilon theophrasti); conditions: foliage application, AAH 320 g/ha
Method in brief: as §3

[24] = tested on: redroot pigweed; test: Test Example 5: herbicidal effect by foliage application, plastic box (Table 20, symbol N); type: in vivo, redroot pigweed (Amaranthus retroflexus); conditions: foliage application, AAH 320 g/ha
Method in brief: as §3

[25] = tested on: lambsquarters; test: Test Example 5: herbicidal effect by foliage application, plastic box (Table 20, symbol O); type: in vivo, lambsquarters (Chenopodium album); conditions: foliage application, AAH 320 g/ha
Method in brief: as §3

[26] = tested on: chickweed; test: Test Example 5: herbicidal effect by foliage application, plastic box (Table 20, symbol P); type: in vivo, common chickweed (Stellaria media); conditions: foliage application, AAH 320 g/ha
Method in brief: as §3

[27] = tested on: false cleavers; test: Test Example 5: herbicidal effect by foliage application, plastic box (Table 20, symbol Q); type: in vivo, false cleavers (Galium spurium); conditions: foliage application, AAH 320 g/ha
Method in brief: as §3

[28] = tested on: persian speedwell; test: Test Example 5: herbicidal effect by foliage application, plastic box (Table 20, symbol R); type: in vivo, Persian speedwell (Veronica persica); conditions: foliage application, AAH 320 g/ha
Method in brief: as §3

[29] = amount of applied herbicide 320 g/ha
[30] = evaluated three weeks after application

COc1nn(C)c(=O)c(-c2c(-c3ccc(F)c(F)c3)sc3ccccc23)c1O [1-172]
herbicidal effect on H (barnyard grass), rating 0-5 ([1]; 320 g/ha): 0 (Herbicidal rate of 5% or less (almost no effect)) | herbicidal effect on D (Chinese sprangletop), rating 0-5 ([2]; 320 g/ha): 0 (Herbicidal rate of 5% or less (almost no effect)) | herbicidal effect on E (rice flat sedge), rating 0-5 [3]: 5 (Herbicidal rate of 90% or more (almost completely withered)) | F: southern crabgrass, herbicidal effect rating ([4]; AAH 320 g/ha): 2 (Herbicidal rate of 20% or more and less than 40%) | G: green foxtail, herbicidal effect rating ([5]; AAH 320 g/ha): 5 (Herbicidal rate of 90% or more (almost completely withered)) | H: barnyard grass, herbicidal effect rating ([6]; AAH 320 g/ha): 0 (Herbicidal rate of 5% or less (almost no effect)) | I: wild oat, herbicidal effect rating ([7]; AAH 320 g/ha): 0 (Herbicidal rate of 5% or less (almost no effect)) | J: blackgrass, herbicidal effect rating ([8]; AAH 320 g/ha): 0 (Herbicidal rate of 5% or less (almost no effect)) | K: Italian ryegrass, herbicidal effect rating ([9]; AAH 320 g/ha): 1 (Herbicidal rate of 5% or more and less than 20%) | L: windgrass, herbicidal effect rating ([10]; AAH 320 g/ha): 0 (Herbicidal rate of 5% or less (almost no effect)) | M: velvetleaf, herbicidal effect rating ([11]; AAH 320 g/ha): 1 (Herbicidal rate of 5% or more and less than 20%) | N: redroot pigweed, herbicidal effect rating ([12]; AAH 320 g/ha): 5 (Herbicidal rate of 90% or more (almost completely withered)) | O: lambsquarters, herbicidal effect rating ([13]; AAH 320 g/ha): 5 (Herbicidal rate of 90% or more (almost completely withered)) | P: chickweed, herbicidal effect rating ([14]; AAH 320 g/ha): 5 (Herbicidal rate of 90% or more (almost completely withered)) | R: persian speedwell, herbicidal effect rating ([15]; AAH 320 g/ha): 5 (Herbicidal rate of 90% or more (almost completely withered)) | F: southern crabgrass, herbicidal effect ([16]; three weeks after application): 0 (Herbicidal rate of 5% or less (almost no effect)) | G: green foxtail, herbicidal effect ([17]; three weeks after application): 4 (Herbicidal rate of 70% or more and less than 90%) | H: barnyard grass, herbicidal effect ([18]; three weeks after application): 0 (Herbicidal rate of 5% or less (almost no effect)) | I: wild oat, herbicidal effect ([19]; three weeks after application): 0 (Herbicidal rate of 5% or less (almost no effect)) | J: blackgrass, herbicidal effect ([20]; three weeks after application): 0 (Herbicidal rate of 5% or less (almost no effect)) | K: Italian ryegrass, herbicidal effect ([21]; three weeks after application): 3 (Herbicidal rate of 40% or more and less than 70%) | L: windgrass, herbicidal effect ([22]; three weeks after application): 0 (Herbicidal rate of 5% or less (almost no effect)) | M: velvetleaf, herbicidal effect ([23]; three weeks after application): 3 (Herbicidal rate of 40% or more and less than 70%) | N: redroot pigweed, herbicidal effect ([24]; three weeks after application): 5 (Herbicidal rate of 90% or more (almost completely withered)) | O: lambsquarters, herbicidal effect ([25]; three weeks after application): 5 (Herbicidal rate of 90% or more (almost completely withered)) | P: chickweed, herbicidal effect ([26]; three weeks after application): 5 (Herbicidal rate of 90% or more (almost completely withered)) | Q: false cleavers, herbicidal effect ([27]; three weeks after application): 5 (Herbicidal rate of 90% or more (almost completely withered)) | R: persian speedwell, herbicidal effect ([28]; three weeks after application): 5 (Herbicidal rate of 90% or more (almost completely withered))

Cc1nn(C)c(=O)c(-c2c(-c3ccc(S(=O)(=O)C(C)C)cc3)sc3ccc(F)cc23)c1O [2-259]
herbicidal effect on H: barnyard grass [1, 29]: 4 (Herbicidal rate of 70% or more and less than 90%) | herbicidal effect on D: Chinese sprangletop [2, 29]: 3 (Herbicidal rate of 40% or more and less than 70%) | herbicidal effect on F: southern crabgrass [4, 29]: 0 (Herbicidal rate of 5% or less (almost no effect)) | herbicidal effect on G: green foxtail [5, 29]: 1 (Herbicidal rate of 5% or more and less than 20%) | herbicidal effect on H: barnyard grass [6, 29]: 0 (Herbicidal rate of 5% or less (almost no effect)) | herbicidal effect on I: wild oat [7, 29]: 0 (Herbicidal rate of 5% or less (almost no effect)) | herbicidal effect on J: blackgrass [8, 29]: 4 (Herbicidal rate of 70% or more and less than 90%) | herbicidal effect on K: Italian ryegrass [9, 29]: 4 (Herbicidal rate of 70% or more and less than 90%) | herbicidal effect on L: windgrass [10, 29]: 0 (Herbicidal rate of 5% or less (almost no effect)) | herbicidal effect on M: velvetleaf [11, 29]: 3 (Herbicidal rate of 40% or more and less than 70%) | herbicidal effect on N: redroot pigweed [12, 29]: 4 (Herbicidal rate of 70% or more and less than 90%) | herbicidal effect on O: lambsquarters [13, 29]: 3 (Herbicidal rate of 40% or more and less than 70%) | herbicidal effect on P: chickweed [14, 29]: 1 (Herbicidal rate of 5% or more and less than 20%) | herbicidal effect on R: persian speedwell [15, 29]: 5 (Herbicidal rate of 90% or more (almost completely withered)) | F: southern crabgrass, herbicidal effect (criteria 0-5) [16, 30]: 4 (Herbicidal rate of 70% or more and less than 90%) | G: green foxtail, herbicidal effect (criteria 0-5) [17, 30]: 3 (Herbicidal rate of 40% or more and less than 70%) | H: barnyard grass, herbicidal effect (criteria 0-5) [18, 30]: 3 (Herbicidal rate of 40% or more and less than 70%) | I: wild oat, herbicidal effect (criteria 0-5) [19, 30]: 4 (Herbicidal rate of 70% or more and less than 90%) | J: blackgrass, herbicidal effect (criteria 0-5) [20, 30]: 4 (Herbicidal rate of 70% or more and less than 90%) | K: Italian ryegrass, herbicidal effect (criteria 0-5) [21, 30]: 4 (Herbicidal rate of 70% or more and less than 90%) | L: windgrass, herbicidal effect (criteria 0-5) [22, 30]: 1 (Herbicidal rate of 5% or more and less than 20%) | M: velvetleaf, herbicidal effect (criteria 0-5) [23, 30]: 4 (Herbicidal rate of 70% or more and less than 90%) | N: redroot pigweed, herbicidal effect (criteria 0-5) [24, 30]: 5 (Herbicidal rate of 90% or more (almost completely withered)) | O: lambsquarters, herbicidal effect (criteria 0-5) [25, 30]: 4 (Herbicidal rate of 70% or more and less than 90%) | P: chickweed, herbicidal effect (criteria 0-5) [26, 30]: 5 (Herbicidal rate of 90% or more (almost completely withered)) | Q: false cleavers, herbicidal effect (criteria 0-5) [27, 30]: 4 (Herbicidal rate of 70% or more and less than 90%) | R: persian speedwell, herbicidal effect (criteria 0-5) [28, 30]: 5 (Herbicidal rate of 90% or more (almost completely withered))
